Legend:
TgDHFR = target: T1, TgDHFR (Toxoplasma gondii, UniProt Q07422); experiment: biochemical; assay type: biochemical; conditions: 37°C
T1 construct: DHFR from T. gondii was isolated directly from RH strain T. gondii grown in culture; endogenous in cells; host or cells: RH strain T. gondii grown on CHO/dhfr- cells
T1 sequence (Q07422 1-610): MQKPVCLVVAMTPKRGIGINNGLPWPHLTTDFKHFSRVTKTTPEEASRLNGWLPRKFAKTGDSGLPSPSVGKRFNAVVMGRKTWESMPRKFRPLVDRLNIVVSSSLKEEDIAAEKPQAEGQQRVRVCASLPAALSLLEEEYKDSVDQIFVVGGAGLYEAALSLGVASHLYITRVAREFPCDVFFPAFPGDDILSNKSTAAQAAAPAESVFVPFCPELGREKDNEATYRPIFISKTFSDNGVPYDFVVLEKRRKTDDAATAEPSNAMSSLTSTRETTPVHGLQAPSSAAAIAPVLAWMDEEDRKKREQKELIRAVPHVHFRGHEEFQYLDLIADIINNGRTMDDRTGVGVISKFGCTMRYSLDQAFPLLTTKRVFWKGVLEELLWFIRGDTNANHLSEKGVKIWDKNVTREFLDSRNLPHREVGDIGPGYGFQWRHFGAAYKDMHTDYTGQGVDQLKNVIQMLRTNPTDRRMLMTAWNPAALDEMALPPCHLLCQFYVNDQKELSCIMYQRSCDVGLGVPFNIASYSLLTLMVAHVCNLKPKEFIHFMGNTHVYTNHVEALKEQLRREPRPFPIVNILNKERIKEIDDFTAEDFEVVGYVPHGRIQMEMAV
Description: DHFR from Pneumocystis carinii was produced as the recombinant enzyme expressed in Escherichia coli. […] Organisms were introduced into a confluent monolayer and harvested when the mammalian cells were lysed. The 100,000× g supernate was stored in liquid nitrogen.
The spectrophotometric assay for DHFR was optimized for temperature and concentration of substrate and cofactor for each enzyme. […] The reaction was continuously recorded for 3 minutes. […] The low background activity in the absence of dihydrofolic acid was subtracted from all rates.
(§1) DHFR was assayed with several concentrations of inhibitor to produce rates ranging from 1 to 90% of the uninhibited rate. At least three concentrations were required for calculation; most curves contained five concentrations.

[1] = system: T. gondii tachyzoites (RH strain); experiment: Murine toxoplasmosis, i.p. JPC-2067-B, peritoneal parasite burden; assay type: in vivo, mice (outbred Swiss Webster)
Description: Tachyzoites also were used to infect mice. Outbred Swiss Webster mice were bred in our specific pathogen free colony. When they were approximately 30 g, they received 10,000 RH strain tachyzoites intra-peritoneally (i.p.); numbers of parasites present in peritoneal fluid were counted four days later as described,[13]. Mice were maintained and utilized in accordance with IACUC and NIH guidelines and approvals. JPC-2067-B was administered parenterally. In initial studies, this was given 15 minutes after i.p. infection and then each day for four days(1.25 mg/kg/day). […] Control mice received 1% DMSO in PBS. For these parenterally treated mice, female mice received a dose of 1.25 mg/kg/day of JPC-2067-B, administered i.p. for the next 3 days. Control mice received an equivalent amount of DMSO (1%) in 1× PBS. In a separate experiment, DMSO at this concentration was shown not to modify subsequent parasite numbers when compared with i.p. inoculation of PBS. […] In contrast, infected control mice appeared ill, with ruffled fur and hunched posture. […] These differences between control and treated mice were statistically significant (p<0.05).

Mav DHFR = target: T2, Mav DHFR (Mycobacterium avium, UniProt O30463); experiment: Spectrophotometric DHFR assay, Mycobacterium avium-intracellulare DHFR; assay type: biochemical; conditions: 37°C; (95% confidence limits)
T2 construct: the bacteria were centrifuged, sonicated, and the 100,000 Xg supernate was stored under liquid nitrogen until assay; endogenous in cells; host or cells: M. avium-intracellulare clinical isolate (serovar 4), Indiana University School of Medicine
T2 sequence (O30463 1-181): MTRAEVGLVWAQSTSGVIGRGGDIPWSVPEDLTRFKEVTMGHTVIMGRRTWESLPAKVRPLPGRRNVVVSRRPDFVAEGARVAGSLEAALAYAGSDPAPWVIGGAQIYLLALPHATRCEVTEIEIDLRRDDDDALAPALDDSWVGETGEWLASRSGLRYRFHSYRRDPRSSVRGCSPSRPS
Description: Mycobacterium avium-intracellulare used in these studies was a clinical isolate (serovar 4) from Indiana University School of Medicine, Department of Pathology. The strain was maintained on Lowenstein-Jensen slants (Baxter Scientific) grown at room temperature. To produce enzyme, the organism was grown in Middlebrook 7H-9 liquid medium at 37°C to an OD660 of 0.5 to 0.7, which took several weeks. At harvest, the bacteria were centrifuged, sonicated, and the 100,000 Xg supernate was stored under liquid nitrogen until assay. These supernates contained both DHFR and dihydroopteroate synthetase activity.
The spectrophotometric assay for DHFR was optimized for temperature and concentration of substrate and cofactor for each enzyme. The standard assay contained Na phosphate buffer pH 7.4 (40.7 mM), 2-mercaptoethanol (8.9 mM), NADPH (0.117 mM), dihydrofolic acid (0.09 mM), KCL (150 mM), and sufficient enzyme to produce a change in OD340 of 0.035/minute at 37°C. The reaction was continuously recorded for 3 minutes. Activity under these conditions was linear with enzyme concentration over a 4-fold range. The low background activity in the absence of dihydrofolic acid was subtracted from all rates.
as §1

[2] = system: Tachyzoites of the RH strain of T. gondii; experiment: T. gondii tachyzoite growth in human foreskin fibroblasts, 3H uracil uptake and microscopy; assay type: cell-based; conditions: Toxoplasma gondii, Fibroblast, RH strain tachyzoites in HFF, 3H uracil uptake after four days in culture
Description: Tachyzoites of the RH strain of T. gondii were passaged in human foreskin fibroblasts (HFF). They were used to infect fibroblasts to determine antimicrobial effects of candidate compounds. Outcome was assessed with microscopy and uracil uptake after four days in culture as described,[12],[13]. Briefly, for testing of inhibitors in vitro against T. gondii tachyzoites, four-day old confluent cultures of human foreskin fibroblasts (HFF) were infected with 10^3 tachyzoites and cultured for 1 hour to allow parasite invasion. Inhibitor was added and cells cultured for 3 days. They were supplemented with ^3H uracil and incubation extended for a further day, whereupon uracil incorporation into cells and thus parasite growth were assessed by liquid scintillation counting,[12],[13]. Studies were performed with inhibitors as described in [8],[12],[13].
For in vitro studies, a stock solution of JPC-2067-B was initially dissolved in 100% dimethyl sulfoxide (DMSO) and then diluted in complete tissue culture medium (IMDM-C) [IMDM with NaHCO3 and 25 mM Hepes (Cambrex Bio Science, Walkersville, MD), 10% fetal bovine serum (Gibco, Grand Island, N.Y.), 1× antibiotic-antimycotic solution (Cellgro, Mediatech), and 2 mM L-glutamine (Gibco). Working concentrations of JPC-2067-B were made using IMDM-C. Concentrations measured ranged from 10 to 100 nM. […]

SMILES: CC1(C)N=C(N)N=C(N)N1OCCCOc1ccc(OC(F)(F)F)cc1Cl [JPC-2067-B, 4,6-diamino-1,2-dihydro-2,2-dimethyl-1-(3′(2-chloro-, 4-trifluoromethoxyphenoxy)propyloxy)-1,3,5-triazine]
- IC50 (TgDHFR; (95% confidence limits), read-out: Tg DHFR IC50): 6.5 nM
- Ratio of IC50 values rat liver DHFR/TgDHFR (TgDHFR; lysates): 3.4
- Intraperitoneal parasite numbers ([1]; 1.25 mg/kg/day i.p., 10,000 RH tachyzoites i.p., fifth day after injection of parasites, p<0.05): reduced by two logs
- Appearance of treated mice ([1]; 1.25 mg/kg/day i.p., 4 days after infection): sleek and active
- IC50 (Mav DHFR): 3.75 nM
- IC50 [2]: 20 nM
- IC90 ([2]; read-out: IC90, T. gondii tachyzoites in tissue culture): 50 nM
